Test results: article PMC12030706, “Novel ^177Lu-Labeled [Thz^14]Bombesin(6–14) Derivatives with Low Pancreas Accumulation for Targeting Gastrin-Releasing Peptide Receptor-Expressing Cancer” (Pharmaceuticals, 2025)

Assays:
[1] = tested on: PC-3 tumor-bearing mice; test: Ex vivo biodistribution in PC-3 tumor-bearing mice
Protocol: (§1) SPECT/CT imaging experiments were performed using an MILabs (Houten, The Netherlands) U-SPECT-II/CT scanner with a custom-made ultra-high-sensitivity big mouse collimator (2 mm pinhole size) following previously reported procedures. […] Male NOD.Cg-Rag1^tm1Mom Il2rg^tm1Wjl/SzJ (NRG) mice were used in these experiments because of their immunodeficient characteristics and excellent radiation tolerance. Mice were anaesthetized and subcutaneously implanted with 5 × 10^6 PC-3 prostate cancer cells (100 µL; 1:1 PBS/Matrigel) behind the left shoulder. SPECT/CT imaging and biodistribution studies were performed once the tumors reached a diameter of 5–8 mm, typically after approximately 4 weeks of growth.
(§2) For ex vivo biodistribution studies, the mice were injected with ~2–6 MBq of the radioligand. […] Blocking study was conducted at 1 h post-injection via co-injection of the radioligand with 100 μg of [D-Phe^6,Leu-NHEt^13,des-Met^14]Bombesin(6–14). Organs/tissues of interested were collected, weighed, and measured using an automatic gamma counter.

[2] = Ex vivo biodistribution in PC-3 tumor-bearing mice; settings: mouse; for tissue to tissue ratio at 1 h / tissue to tissue ratio at 4 h / tissue to tissue ratio at 24 h / tissue to tissue ratio at 72 h / tissue to tissue ratio at 120 h: male, NOD.Cg-Rag1^tm1Mom Il2rg^tm1Wjl/SzJ (NRG), total radioactivity
Protocol: as §1, §2

[3] = 1 h blocked (co-injected with 100 µg [D-Phe6,Leu-NHEt13,des-Met14]Bombesin(6-14))
[4] = 1 h post-injection, 100 µg [D-Phe6,Leu-NHEt13,des-Met14]Bombesin(6–14)

Uptake in lungs [1, 3]: 0.52 ± 0.08 %ID/g
Uptake in muscle [1, 3]: 0.14 ± 0.03 %ID/g
Tumor/blood uptake ratio ([1]; 1 h post-injection): 15.9 ± 1.15
Uptake in adrenal glands ([1]; 1 h post-injection): 1.22 ± 0.38 %ID/g
Uptake in blood ([1]; 1 h post-injection): 0.69 ± 0.06 %ID/g
Uptake in bone ([1]; 1 h post-injection): 0.14 ± 0.05 %ID/g
Uptake in brain ([1]; 1 h post-injection): 0.03 ± 0.00 %ID/g
Uptake in liver ([1]; 1 h post-injection): 0.40 ± 0.05 %ID/g
Uptake in lungs ([1]; 1 h post-injection): 0.69 ± 0.12 %ID/g
Uptake in testes ([1]; 1 h post-injection): 0.23 ± 0.04 %ID/g
Uptake in adrenal glands ([1]; 4 h post-injection): 1.02 ± 0.33 %ID/g
Uptake in brain ([1]; 4 h post-injection): 0.03 ± 0.02 %ID/g
Uptake in heart ([1]; 4 h post-injection): 0.06 ± 0.06 %ID/g
Uptake in liver ([1]; 4 h post-injection): 0.23 ± 0.07 %ID/g
Uptake in lungs ([1]; 4 h post-injection): 0.23 ± 0.11 %ID/g
Uptake in muscle ([1]; 4 h post-injection): 0.03 ± 0.01 %ID/g
Uptake in testes ([1]; 4 h post-injection): 0.06 ± 0.05 %ID/g
Uptake in heart ([1]; 24 h post-injection): 0.03 ± 0.00 %ID/g
Uptake in spleen ([1]; 24 h post-injection): 0.12 ± 0.02 %ID/g
Uptake in adrenal glands ([1]; 72 h post-injection): 0.41 ± 0.06 %ID/g
Uptake in kidneys ([1]; 72 h post-injection): 0.52 ± 0.10 %ID/g
Uptake in large intestine ([1]; 72 h post-injection): 0.23 ± 0.04 %ID/g
Uptake in lungs ([1]; 72 h post-injection): 0.06 ± 0.03 %ID/g
Uptake in pancreas ([1]; 72 h post-injection): 1.03 ± 0.30 %ID/g
Uptake in small intestine ([1]; 72 h post-injection): 0.09 ± 0.03 %ID/g
Uptake in large intestine ([1]; 120 h post-injection): 0.09 ± 0.02 %ID/g
Uptake in lungs ([1]; 120 h post-injection): 0.03 ± 0.03 %ID/g
Uptake in small intestine ([1]; 120 h post-injection): 0.03 ± 0.00 %ID/g
Uptake in large intestine ([1]; mouse, in vivo, 100 ug, 1 h): 0.29 ± 0.08 %ID/g
uptake in PC-3 tumor xenografts cleared within 24 h ([1]; relative to 1 h uptake): 37%
tissue to tissue ratio at 1 h ([2]; tumor/blood, Tumor/blood uptake ratio, 1 h blocked (co-injected with 100 µg [D-Phe6,Leu-NHEt13,des-Met14]Bombesin(6-14))): 5.32 ± 0.87
tissue to tissue ratio at 1 h ([2]; tumor/blood, Tumor/blood uptake ratio, 1 h post-injection): 15.9 ± 1.55
tissue to tissue ratio at 4 h ([2]; tumor/blood, Tumor/blood uptake ratio, 4 h post-injection): 234 ± 53.9
tissue to tissue ratio at 24 h ([2]; tumor/blood, Tumor/blood uptake ratio, 24 h post-injection): 1220 ± 229
tissue to tissue ratio at 72 h ([2]; tumor/blood, Tumor/blood uptake ratio, 72 h post-injection): 1330 ± 177
tissue to tissue ratio at 120 h ([2]; tumor/blood, Tumor/blood uptake ratio, 120 h post-injection): 1310 ± 412
tissue to tissue ratio at 1 h ([2]; tumor/kidney, Tumor/kidney uptake ratio, 1 h blocked (co-injected with 100 µg [D-Phe6,Leu-NHEt13,des-Met14]Bombesin(6-14))): 0.85 ± 0.1
tissue to tissue ratio at 1 h ([2]; tumor/kidney, Tumor/kidney uptake ratio, 1 h post-injection): 2.96 ± 0.43
tissue to tissue ratio at 4 h ([2]; tumor/kidney, Tumor/kidney uptake ratio, 4 h post-injection): 3.27 ± 0.89
tissue to tissue ratio at 24 h ([2]; tumor/kidney, Tumor/kidney uptake ratio, 24 h post-injection): 4.86 ± 0.64
tissue to tissue ratio at 72 h ([2]; tumor/kidney, Tumor/kidney uptake ratio, 72 h post-injection): 8.92 ± 1.62
tissue to tissue ratio at 120 h ([2]; tumor/kidney, Tumor/kidney uptake ratio, 120 h post-injection): 11.3 ± 1.27
tissue to tissue ratio at 1 h ([2]; tumor/muscle, Tumor/muscle uptake ratio, 1 h blocked (co-injected with 100 µg [D-Phe6,Leu-NHEt13,des-Met14]Bombesin(6-14))): 21.5 ± 3.27
tissue to tissue ratio at 1 h ([2]; tumor/muscle, Tumor/muscle uptake ratio, 1 h post-injection): 76.2 ± 10.1
tissue to tissue ratio at 4 h ([2]; tumor/muscle, Tumor/muscle uptake ratio, 4 h post-injection): 392 ± 101
tissue to tissue ratio at 24 h ([2]; tumor/muscle, Tumor/muscle uptake ratio, 24 h post-injection): 651 ± 95
tissue to tissue ratio at 72 h ([2]; tumor/muscle, Tumor/muscle uptake ratio, 72 h post-injection): 647 ± 311
tissue to tissue ratio at 120 h ([2]; tumor/muscle, Tumor/muscle uptake ratio, 120 h post-injection): 776 ± 314
tissue to tissue ratio at 1 h ([2]; tumor/pancreas, Tumor/pancreas uptake ratio, 1 h blocked (co-injected with 100 µg [D-Phe6,Leu-NHEt13,des-Met14]Bombesin(6-14))): 1.17 ± 0.31
tissue to tissue ratio at 1 h ([2]; tumor/pancreas, Tumor/pancreas uptake ratio, 1 h post-injection): 0.99 ± 0.11
tissue to tissue ratio at 4 h ([2]; tumor/pancreas, Tumor/pancreas uptake ratio, 4 h post-injection): 1.87 ± 0.37
tissue to tissue ratio at 24 h ([2]; tumor/pancreas, Tumor/pancreas uptake ratio, 24 h post-injection): 2.22 ± 0.25
tissue to tissue ratio at 72 h ([2]; tumor/pancreas, Tumor/pancreas uptake ratio, 72 h post-injection): 4.58 ± 0.68
tissue to tissue ratio at 120 h ([2]; tumor/pancreas, Tumor/pancreas uptake ratio, 120 h post-injection): 6.6 ± 1.14
tissue uptake at 1 h ([2]; PC-3 tumor, 100 ug, Uptake in PC-3 tumor, 1 h blocked (co-injected with 100 µg [D-Phe6,Leu-NHEt13,des-Met14]Bombesin(6-14))): 2.99 ± 0.42 %ID/g
tissue uptake at 1 h ([2]; PC-3 tumor, Uptake in PC-3 tumor, 1 h post-injection): 11 ± 1.03 %ID/g
tissue uptake at 4 h ([2]; PC-3 tumor, Uptake in PC-3 tumor, 4 h post-injection): 10.1 ± 1.4 %ID/g
tissue uptake at 24 h ([2]; PC-3 tumor, Uptake in PC-3 tumor, 24 h post-injection): 6.9 ± 1.34 %ID/g
tissue uptake at 72 h ([2]; PC-3 tumor, Uptake in PC-3 tumor, 72 h post-injection): 4.72 ± 1.42 %ID/g
tissue uptake at 120 h ([2]; PC-3 tumor, Uptake in PC-3 tumor, 120 h post-injection): 2.23 ± 0.33 %ID/g
Structure (SMILES): CC(C)C[C@H](NC(=O)[C@H](Cc1cnc[nH]1)N(C)C(=O)CNC(=O)[C@@H](NC(=O)[C@H](C)NC(=O)[C@H](Cc1c[nH]c2ccccc12)NC(=O)[C@H](CCC(N)=O)NC(=O)[C@@H](Cc1ccccc1)NC(=O)CN1CCC(NC(=O)CN2CCN(CC(=O)O)CCN(CC(=O)O)CCN(CC(=O)O)CC2)CC1)C(C)(C)C)C(=O)N1CSC[C@H]1C(N)=O [[^177Lu]Lu-LW01110, metal not drawn]
reduction of average pancreas uptake by co-injection of blocker [1, 4]: 76%
reduction of average tumor uptake by co-injection of blocker [1, 4]: 73%
